Experiments:
Type in all cases: cell-based, human
[1] = system: HS-ORS cells; test: IFN-β and ISG mRNA quantification after siRNA transfection of HS-ORS cells; conditions: compared to scramble siRNA
Excerpt: (§1) FIG. 1: IFI16-STING pathway induces interferon (IFN) production in outer root sheath (ORS) cells from patients with hidradenitis suppurativa (HS). (A) Relative mRNA levels of IFN-β and IP10 in HS-ORS and HD-ORS cells. **P<0.01; ns, nonsignificant; Mann-Whitney rank-sum test. (B) Nonparametric Spearman correlation analysis of the expression of IFN-β genes and percentage of cells in phase S in HS-ORS cell populations. (C) Levels of IFN-β mRNA in HS-ORS (n=10) and HD-ORS (n=4) cell populations transfected with siSTING for 2 days before IFN-β mRNA quantification. (D) IFN-β mRNA levels in HS-ORS cell populations (n=3) transfected with siRNA-cGAS or siRNA-IFI16 for 2 days before IFN-β mRNA quantification. (E) DNA fiber spreading analysis of fork progression in HS-ORS cell populations (n=2) transfected with siSTING for 2 days before DNA fiber spreading. ****P<0.0001, Mann-Whitney rank-sum test. […] Quantification of phospho-IRF3 signal intensity in HS-ORS (n=7) and HD (n=5). […]
(§2) ORS cells were lysed with RLT Plus Buffer (Qiagen). The RNA was extracted using the RNeasy Plus Mini Kit (Qiagen) according to the manufacturer's protocol then converted into cDNA using the QuantiTect Reverse Transcription Kit (Qiagen) for IFNβ detection and the High-Capacity cDNA Reverse Transcription Kit (Applied Biosystems, Thermo Fisher Scientific) for the expression of other genes. […]

[2] = system: HD-ORS cells; test: IFN-β and ISG mRNA quantification after siRNA transfection of HD-ORS cells; conditions: compared to scramble siRNA
Excerpt: as §1, §2

[3] = system: HS-ORS; test: Western blot analysis (phospho-IRF3, cGAS protein) after siRNA transfection of HS-ORS; conditions: compared to scramble siRNA
Excerpt: (§3) FIG. 1: IFI16-STING pathway induces interferon (IFN) production in outer root sheath (ORS) cells from patients with hidradenitis suppurativa (HS). (A) Relative mRNA levels of IFN-β and IP10 in HS-ORS and HD-ORS cells. **P<0.01; ns, nonsignificant; Mann-Whitney rank-sum test. (B) Nonparametric Spearman correlation analysis of the expression of IFN-β genes and percentage of cells in phase S in HS-ORS cell populations. (C) Levels of IFN-β mRNA in HS-ORS (n=10) and HD-ORS (n=4) cell populations transfected with siSTING for 2 days before IFN-β mRNA quantification. (D) IFN-β mRNA levels in HS-ORS cell populations (n=3) transfected with siRNA-cGAS or siRNA-IFI16 for 2 days before IFN-β mRNA quantification. (E) DNA fiber spreading analysis of fork progression in HS-ORS cell populations (n=2) transfected with siSTING for 2 days before DNA fiber spreading. ****P<0.0001, Mann-Whitney rank-sum test. (F) Western blot analysis of the levels of phospho-IRF3 in ORS transfected with siSTING or siCtrl. Quantification of phospho-IRF3 signal intensity in HS-ORS (n=7) and HD (n=5).
(§4) The following siRNAs were used: siSTING (CUGCAUCCAUCCAUCCCGUdTdT; SEQ ID NO:1, Sigma #Hs01_00031038, Sigma, St Louis, […].), siIFI16 (L-020004-00-0005, ON-TARGETplus Human IFI16 siRNA SMARTpool, Horizon Discovery, Waterbeach, UK), and sicGAS (L-015607-02-0005, ON-TARGETplus Human MB21D1 siRNA SMARTpool, Horizon Discovery). […]

[4] = system: HD-ORS; test: Western blot analysis of phospho-IRF3 after siRNA transfection of HD-ORS; conditions: compared to scramble siRNA
Excerpt: as §3, §4

[5] = system: HS-ORS cell populations; test: DNA fiber spreading analysis of fork progression after siSTING transfection; conditions: both HS-ORS cell populations (n=2); siSTING for 2 days before DNA fiber spreading
Excerpt: as §1
DNA fiber spreading was performed as described by Jackson and Pombo (16). […] The DNA fiber images thus acquired were analyzed using MetaMorph Microscopy Automation and Image Analysis Software (Molecular Devices, San Jose, Calif.) and the results were evaluated statistically by applying the two-sided Mann-Whitney rank-sum test with GraphPad Prism software (GraphPad, La Jolla, Calif.).

[6] = system: HS-ORS; test: mRNA quantification of ISGs in HS-ORS treated with drugs targeting the IFN pathway; conditions: compared to ORS treated with DMSO
Protocol: FIG. 2: Outer root sheath (ORS) cells from two patients were treated with two drugs (A. Ruxolitinib B. H151) targeting the interferon (IFN) pathway. mRNA levels of MX1, IP10, IFI27 and OAS1 in ORS. HS-ORS (n=2) were treated with two drugs during 24 hours before performing mRNA quantification.
ORS cells were lysed with RLT Plus Buffer (Qiagen). The RNA was extracted using the RNeasy Plus Mini Kit (Qiagen) according to the manufacturer's protocol then converted into cDNA using the QuantiTect Reverse Transcription Kit (Qiagen) for IFNβ detection and the High-Capacity cDNA Reverse Transcription Kit (Applied Biosystems, Thermo Fisher Scientific) for the expression of other genes.
For real-time PCR analysis of the cDNA samples thus obtained, we prepared custom-made primer sets using the Brilliant II SYBR green QPCR master mix (Agilent Technologies) or Quantitect SYBR Green PCR Kit (Qiagen) according to the manufacturers' protocols. Real-time PCR was performed on a MX3000P device (Agilent). The GAPDH or OAZ1 mRNA level was used for normalization. The relative expression (ΔCt) of mRNAs of each gene was computed using GAPDH or OAZ-1 expression as the reference.
We used two drugs targeting IFN pathway. HS-ORS (n=2) were treated with drugs during 24 hours before performing mRNA quantification. Four ISGs: MX1, OAS1, IFI27 and IP10 were analyzed.

[7] = first patient, ORS treated 24 hours

siSTING: siRNA CUGCAUCCAUCCAUCCCGUdTdT; SEQ ID NO:1, Sigma #Hs01_00031038 (sense CUGCAUCCAUCCAUCCCGUTT; dTdT overhang, further chemistry not given here)
IFN-β transcript levels ([1]; HS-ORS cells, siRNA 10 μM, 2 days): lower | ISGs transcripts (OAS1 and IP-10) ([1]; ORS from HS patients): decrease | IFN-β transcript levels ([2]; HD-ORS cells, siRNA 10 μM, 2 days): not associated with a difference | ISGs transcripts (OAS1 and IP-10) ([2]; ORS from HD): no change | IRF3 phosphorylation at Ser396 (pIRF3) [3]: inhibition | IRF3 phosphorylation at Ser396 (pIRF3) [4]: no modification | IdU track length [5]: decreased to the length observed in HD-ORS cells

CCc1ccc(NC(=O)Nc2c[nH]c3ccccc23)cc1 [H151, N-(4-Ethylphenyl)-N′-1H-indol-3-yl-urea]
levels of IFI27 transcripts ([6]; HS-ORS (n=2), 24 hours): reduced levels | levels of IP10 transcripts ([6]; HS-ORS (n=2), 24 hours): reduced levels | levels of MX1 transcripts ([6]; HS-ORS (n=2), 24 hours): reduced levels | levels of OAS1 transcripts ([6]; HS-ORS (n=2), 24 hours): reduced levels | levels of IFI27 transcripts [6, 7]: reduced levels | levels of IP10 transcripts [6, 7]: reduced levels | levels of MX1 transcripts [6, 7]: reduced levels | levels of OAS1 transcripts [6, 7]: reduced levels
